From US5530126A, “Process for the preparation of substituted 6-(pyrazol-3yl)-1,4-benzoxazin-3-ones” (Monsanto Company, priority 1994, dated 1996)

Experiments:
Assay type in all cases: in vivo
Wild buckwheat [1] = experiment: Post-emergence herbicide test; settings: Fallopia convolvulus, read-out: % plant inhibition (Wibw); for inhibition at 1120 g/ha: 1.12 kg/ha
In short: (§1)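 Post-emergence greenhouse spray: 2–3-wk-old plants in soil pans; atomizer at 170.3 kPa (10 psig); 1870 L/Ha carrier volume, ~0.4% v/v emulsifier. Read-out is % inhibition vs control at 10–14 d (usually 11 d), occasionally also 24–28 d.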

Indian Mustard [2] = experiment: Post-emergence herbicide test; settings: Brassica juncea, read-out: % plant inhibition (Inmu); for inhibition at 1120 g/ha: 1.12 kg/ha
In short: as §1

Cocklebur [3] = experiment: Post-emergence herbicide test; settings: Xanthium strumarium, read-out: % plant inhibition (Cobu); for inhibition at 1120 g/ha: 1.12 kg/ha
In short: as §1

Velvetleaf [4] = experiment: Post-emergence herbicide test; settings: Abutilon theophrasti, read-out: % plant inhibition (Vele); for inhibition at 1120 g/ha: 1.12 kg/ha
In short: as §1

Downy Brome [5] = experiment: Post-emergence herbicide test; settings: Bromus tectorum, read-out: % plant inhibition (Dobr); for inhibition at 1120 g/ha: 1.12 kg/ha
In short: as §1

Barnyardgrass [6] = experiment: Post-emergence herbicide test; settings: Echinochloa crus-galli, read-out: % plant inhibition (Bygr); for inhibition at 1120 g/ha: 1.12 kg/ha
In short: as §1

Seedling johnsongrass [7] = experiment: Post-emergence herbicide test; settings: Sorghum halepense, read-out: % plant inhibition (Sejg); for inhibition at 1120 g/ha: 1.12 kg/ha
In short: as §1

Annual bluegrass [8] = experiment: Post-emergence herbicide test; settings: read-out: % plant inhibition (Anbg); for inhibition at 1120 g/ha: 1.12 kg/ha
In short: as §1

Morningglory [9] = experiment: Post-emergence herbicide test; settings: Ipomoea, read-out: % plant inhibition (Mogl); for inhibition at 1120 g/ha: 1.12 kg/ha
In short: as §1

Yellow nutsedge [10] = experiment: Post-emergence herbicide test; settings: Cyperus, read-out: % plant inhibition (Yens); for inhibition at 1120 g/ha: 1.12 kg/ha
In short: as §1

Wild buckwheat [11] = experiment: Pre-emergence herbicide test; settings: Fallopia convolvulus, read-out: % plant inhibition (Wibw); for inhibition at 1120 g/ha: 1.12 kg/ha
In short: (§2)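 Greenhouse pans: topsoil compacted to within 0.95-1.27 cm of top, seeds laid on surface, active ingredient (organic solvent or water carrier) applied, untreated topsoil cover added. Watered from below; % inhibition at ~11 d.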

Indian Mustard [12] = experiment: Pre-emergence herbicide test; settings: Brassica juncea, read-out: % plant inhibition (Inmu); for inhibition at 1120 g/ha: 1.12 kg/ha
In short: as §2

Cocklebur [13] = experiment: Pre-emergence herbicide test; settings: Xanthium strumarium, read-out: % plant inhibition (Cobu); for inhibition at 1120 g/ha: 1.12 kg/ha
In short: as §2

Velvetleaf [14] = experiment: Pre-emergence herbicide test; settings: Abutilon theophrasti, read-out: % plant inhibition (Vele); for inhibition at 1120 g/ha: 1.12 kg/ha
In short: as §2

Downy Brome [15] = experiment: Pre-emergence herbicide test; settings: Bromus tectorum, read-out: % plant inhibition (Dobr); for inhibition at 1120 g/ha: 1.12 kg/ha
In short: as §2

Barnyardgrass [16] = experiment: Pre-emergence herbicide test; settings: Echinochloa crus-galli, read-out: % plant inhibition (Bygr); for inhibition at 1120 g/ha: 1.12 kg/ha
In short: as §2

Seedling johnsongrass [17] = experiment: Pre-emergence herbicide test; settings: Sorghum halepense, read-out: % plant inhibition (Sejg); for inhibition at 1120 g/ha: 1.12 kg/ha
In short: as §2

Annual bluegrass [18] = experiment: Pre-emergence herbicide test; settings: read-out: % plant inhibition (Anbg); for inhibition at 1120 g/ha: 1.12 kg/ha
In short: as §2

Morningglory [19] = experiment: Pre-emergence herbicide test; settings: Ipomoea, read-out: % plant inhibition (Mogl); for inhibition at 1120 g/ha: 1.12 kg/ha
In short: as §2

Yellow nutsedge [20] = experiment: Pre-emergence herbicide test; settings: Cyperus, read-out: % plant inhibition (Yens); for inhibition at 1120 g/ha: 1.12 kg/ha
In short: as §2

SMILES | inhibition at 1120 g/ha (Wild buckwheat [1]) [%] | inhibition at 1120 g/ha (Indian Mustard [2]) [%] | inhibition at 1120 g/ha (Cocklebur [3]) [%] | inhibition at 1120 g/ha (Velvetleaf [4]) [%] | inhibition at 1120 g/ha (Downy Brome [5]) [%] | inhibition at 1120 g/ha (Barnyardgrass [6]) [%] | inhibition at 1120 g/ha (Seedling johnsongrass [7]) [%] | inhibition at 1120 g/ha (Annual bluegrass [8]) [%] | inhibition at 1120 g/ha (Morningglory [9]) [%] | inhibition at 1120 g/ha (Yellow nutsedge [10]) [%] | inhibition at 1120 g/ha (Wild buckwheat [11]) [%] | inhibition at 1120 g/ha (Indian Mustard [12]) [%] | inhibition at 1120 g/ha (Cocklebur [13]) [%] | inhibition at 1120 g/ha (Velvetleaf [14]) [%] | inhibition at 1120 g/ha (Downy Brome [15]) [%] | inhibition at 1120 g/ha (Barnyardgrass [16]) [%] | inhibition at 1120 g/ha (Seedling johnsongrass [17]) [%] | inhibition at 1120 g/ha (Annual bluegrass [18]) [%] | inhibition at 1120 g/ha (Morningglory [19]) [%] | inhibition at 1120 g/ha (Yellow nutsedge [20]) [%] | other results
Cn1nc(C(F)(F)F)c(Cl)c1-c1ccc(F)cc1F [Compound 75] | – | – | – | – | – | – | – | – | – | – | – | – | – | – | – | – | – | – | – | – | inhibition at 11210 g/ha (Wild buckwheat [1]; 11.21 kg/ha): 60%; inhibition at 11210 g/ha (Indian Mustard [2]; 11.21 kg/ha): 0%; inhibition at 11210 g/ha (Cocklebur [3]; 11.21 kg/ha): 0%; inhibition at 11210 g/ha (Velvetleaf [4]; 11.21 kg/ha): 0%; inhibition at 11210 g/ha (Downy Brome [5]; 11.21 kg/ha): 0%; inhibition at 11210 g/ha (Barnyardgrass [6]; 11.21 kg/ha): 0%; inhibition at 11210 g/ha (Seedling johnsongrass [7]; 11.21 kg/ha): 0%; inhibition at 11210 g/ha (Annual bluegrass [8]; 11.21 kg/ha): 0%; inhibition at 11210 g/ha (Morningglory [9]; 11.21 kg/ha): 10%; inhibition at 11210 g/ha (Yellow nutsedge [10]; 11.21 kg/ha): 0%; inhibition at 11210 g/ha (Wild buckwheat [11]; 11.21 kg/ha): 50%; inhibition at 11210 g/ha (Indian Mustard [12]; 11.21 kg/ha): 30%; inhibition at 11210 g/ha (Cocklebur [13]; 11.21 kg/ha): 10%; inhibition at 11210 g/ha (Velvetleaf [14]; 11.21 kg/ha): 80%; inhibition at 11210 g/ha (Downy Brome [15]; 11.21 kg/ha): 20%; inhibition at 11210 g/ha (Barnyardgrass [16]; 11.21 kg/ha): 20%; inhibition at 11210 g/ha (Seedling johnsongrass [17]; 11.21 kg/ha): 50%; inhibition at 11210 g/ha (Annual bluegrass [18]; 11.21 kg/ha): 0%; inhibition at 11210 g/ha (Morningglory [19]; 11.21 kg/ha): 90%; inhibition at 11210 g/ha (Yellow nutsedge [20]; 11.21 kg/ha): 20%
COCCOCc1cc(-c2nn(C)c(C(F)(F)F)c2Cl)c(F)cc1Cl [Compound 117] | 100 | 90 | 90 | 100 | 100 | 100 | 100 | 90 | 100 | 20 | 100 | 100 | 70 | 100 | 90 | 100 | 70 | 100 | 90 | 0 | –
Cn1nc(-c2cc(NS(C)(=O)=O)c(Cl)cc2Cl)c(Cl)c1C(F)(F)F [Compound 91] | 80 | 50 | 100 | 40 | 40 | 30 | 40 | 50 | 60 | 10 | 70 | 90 | 20 | 100 | 0 | 0 | 0 | 0 | 90 | 0 | –
COC(=O)C=Cc1cc(-c2nn(C)c(C(F)(F)F)c2Cl)c(F)cc1Cl [Compound 128, 3-(2-chloro-5-(4-chloro-1-methyl-5-(trifluoromethyl)-1H-pyrazol-3-yl)-4-fluorophenyl)propenoic acid, methyl ester] | 100 | 90 | 100 | 100 | 100 | 50 | 100 | 30 | 100 | 20 | 100 | 70 | 70 | 100 | 0 | 0 | 30 | 0 | 80 | 0 | –
COCOc1cc(-c2nn(C)c(C(F)(F)F)c2Cl)c(F)cc1Cl [Compound 308, 4-Chloro-3-(4-chloro-2-fluoro-5-(methoxy-methoxy)phenyl)-1-methyl-5-(trifluoromethyl)-1H-pyrazole] | 100 | 90 | 90 | 100 | 100 | 100 | 100 | 100 | 90 | 20 | 100 | 100 | 80 | 100 | 100 | 100 | 100 | 100 | 100 | 40 | –
